Measured values as given in paper PMC11406361, “Several orphan solute carriers functionally identified as organic cation transporters: Substrates specificity compared with known cation transporters” (The Journal of Biological Chemistry, 2024).
Like-named read-outs stand apart in the source and are kept apart here.

How the values were obtained:
SLC35G3 [1] = molecular target: T1, SLC35G3 (Homo sapiens, UniProt Q8N808); conditions: ratio of Vmax over KM
SLC22A15 = molecular target: T2, SLC22A15 (Homo sapiens, UniProt Q8IZD6); assay: Uptake ratio screen, SLC22A15-overexpressing HEK293 over empty vector cells; format: cell-based; conditions: 2.5 μM (nicotine 10 μM), 2 min
T2 construct: by amplifying the entire gene-of-interest within the HEK293 genome via a long-range PCR
T2 sequence (Q8IZD6 whole entry): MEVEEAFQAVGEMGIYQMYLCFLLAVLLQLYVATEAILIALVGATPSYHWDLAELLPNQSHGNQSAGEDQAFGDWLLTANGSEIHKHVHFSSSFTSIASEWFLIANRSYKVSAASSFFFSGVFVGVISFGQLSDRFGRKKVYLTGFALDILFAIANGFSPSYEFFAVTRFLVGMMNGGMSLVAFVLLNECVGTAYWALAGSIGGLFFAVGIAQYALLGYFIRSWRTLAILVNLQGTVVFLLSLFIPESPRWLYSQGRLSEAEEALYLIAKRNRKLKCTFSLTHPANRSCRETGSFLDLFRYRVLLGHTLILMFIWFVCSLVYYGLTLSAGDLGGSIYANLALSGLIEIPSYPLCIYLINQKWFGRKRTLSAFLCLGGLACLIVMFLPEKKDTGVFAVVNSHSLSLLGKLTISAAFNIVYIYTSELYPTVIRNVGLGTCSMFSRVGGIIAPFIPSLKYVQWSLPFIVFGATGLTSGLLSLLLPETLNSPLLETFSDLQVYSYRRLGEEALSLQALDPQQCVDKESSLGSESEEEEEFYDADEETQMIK
Description: (§1) Typically discussed substrates of the proton organic-cation antiporter ([14]) are highlighted in dark green in Figure 1.
(§2) In preparation for transport experiments, 24-well plates were pre-coated with poly-D-lysine (Sigma-Aldrich) and 300,000 cells were plated per well and incubated for 48 h. Firstly, the 24-well plate was placed on a heating plate at 37 °C, and the cells were washed with 37 °C HBSS^+ buffer (Hank’s balanced salt solution supplemented with 10 mM Hepes and adjusted to pH 7.4; Thermo Fisher Scientific). The substance-of-interest, which was diluted in 37 °C HBSS^+ to a desired concentration, was added to the cells for exactly 2 min. […] The uptake was stopped with ice-cold HBSS^+, and the 24-well plate was removed from the heating plate. The cells were washed twice with the cold HBSS^+ before they were lysed for 15 min with 80% (v/v) acetonitrile containing the respective internal standard for mass spectrometry. For variations in seeded cell numbers between the cell lines, several wells were lysed in RIPA buffer and used for total protein quantification using a bicinchoninic assay ([74]) and bovine serum albumin as calibration.
(§3) The intracellular drug concentrations after transport experiments were analyzed by high-performance liquid chromatography coupled to tandem mass spectrometry analysis. The HPLC consisted of a Shimadzu Nexera HPLC System with a SIL-30AC autosampler, a LC-30AD pump, a CTO-20AC column oven, and a CBM-20A controller (Shimadzu). The reverse-phase chromatography of compounds was accomplished with a Brownlee SPP RP-Amide column with 4.6 × 100 mm inner dimensions, a particle size of 2.7 μm, and a preceding Phenomenex C-18 guard column. The mobile phase was composed of an organic additive with acetonitrile:methanol 6:1 (v/v) in total concentrations between 3% and 50% (v/v) and 0.1% (v/v) formic acid in the aqueous component of the eluent. During separation, the column oven was held at 40 °C and the mobile phase was maintained at a flow rate of 300 or 400 μl/min. After separation, the detection of substances was performed with an API 4000 tandem mass spectrometer (AB SCIEX, https://sciex.com/support/software-support/software-downloads), followed by quantification of results with the Analyst software (AB SCIEX, version 1.6.2). The composition of chromatographic conditions, as well as detailed mass spectrometric detection parameters, are listed in Table S5.
(§4) Transport-mediated net uptake was determined as fold-increase of transporter-overexpressing cells over empty vector–transfected control cells.

SLC35F5 = molecular target: T3, SLC35F5 (Homo sapiens, UniProt Q8WV83); assay: Uptake ratio screen, SLC35F5-overexpressing HEK293 over empty vector cells; format: cell-based; set-up: by amplifying the entire gene-of-interest within the HEK293 genome via a long-range PCR; conditions: 2.5 μM, 2 min
T3 sequence (Q8WV83 1-523): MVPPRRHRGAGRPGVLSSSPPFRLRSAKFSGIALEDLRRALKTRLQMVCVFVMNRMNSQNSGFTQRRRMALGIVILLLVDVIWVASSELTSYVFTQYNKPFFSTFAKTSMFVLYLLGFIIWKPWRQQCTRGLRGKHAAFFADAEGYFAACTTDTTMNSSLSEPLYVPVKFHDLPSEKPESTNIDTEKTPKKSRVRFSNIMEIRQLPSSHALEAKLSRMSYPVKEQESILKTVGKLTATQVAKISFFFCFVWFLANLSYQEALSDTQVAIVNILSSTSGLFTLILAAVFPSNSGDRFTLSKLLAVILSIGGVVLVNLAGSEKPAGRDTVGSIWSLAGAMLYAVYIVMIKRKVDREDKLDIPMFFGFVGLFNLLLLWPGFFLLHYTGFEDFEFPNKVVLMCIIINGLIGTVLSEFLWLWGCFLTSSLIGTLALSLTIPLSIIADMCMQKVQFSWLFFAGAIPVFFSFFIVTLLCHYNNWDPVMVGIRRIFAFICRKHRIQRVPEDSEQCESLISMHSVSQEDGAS
Description: as §1, §2, §3, §4

SLC35G3 [2] = molecular target: T1, SLC35G3; assay: Uptake ratio screen, SLC35G3-overexpressing HEK293 over empty vector cells; format: cell-based; set-up: by amplifying the entire gene-of-interest within the HEK293 genome via a long-range PCR
SLC47A2 = SLC47A2 (Homo sapiens, UniProt Q86VL8); assay: Uptake ratio screen, SLC47A2-overexpressing HEK293 over empty vector cells; format: cell-based; conditions: 2.5 μM, 2 min
Sequence of SLC47A2 (Q86VL8 1-566 isoform Q86VL8-3): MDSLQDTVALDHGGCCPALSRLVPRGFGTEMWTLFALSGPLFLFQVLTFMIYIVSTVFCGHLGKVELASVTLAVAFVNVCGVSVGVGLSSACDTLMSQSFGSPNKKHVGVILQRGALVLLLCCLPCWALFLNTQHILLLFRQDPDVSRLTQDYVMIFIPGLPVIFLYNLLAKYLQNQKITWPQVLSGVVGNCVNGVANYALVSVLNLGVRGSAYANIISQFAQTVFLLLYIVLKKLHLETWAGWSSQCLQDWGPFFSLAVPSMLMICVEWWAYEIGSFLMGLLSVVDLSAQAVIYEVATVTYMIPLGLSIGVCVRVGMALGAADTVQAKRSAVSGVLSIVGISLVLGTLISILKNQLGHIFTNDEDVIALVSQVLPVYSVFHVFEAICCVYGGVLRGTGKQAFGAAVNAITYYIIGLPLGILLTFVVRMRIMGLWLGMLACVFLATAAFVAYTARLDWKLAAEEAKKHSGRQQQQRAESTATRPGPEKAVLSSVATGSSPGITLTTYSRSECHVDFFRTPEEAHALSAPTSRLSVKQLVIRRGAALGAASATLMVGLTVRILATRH
Description: as §1, §2
(§5) The intracellular drug concentrations after transport experiments were analyzed by high-performance liquid chromatography coupled to tandem mass spectrometry analysis. The HPLC consisted of a Shimadzu Nexera HPLC System with a SIL-30AC autosampler, a LC-30AD pump, a CTO-20AC column oven, and a CBM-20A controller (Shimadzu). The reverse-phase chromatography of compounds was accomplished with a Brownlee SPP RP-Amide column with 4.6 × 100 mm inner dimensions, a particle size of 2.7 μm, and a preceding Phenomenex C-18 guard column. […] After separation, the detection of substances was performed with an API 4000 tandem mass spectrometer (AB SCIEX, https://sciex.com/support/software-support/software-downloads), followed by quantification of results with the Analyst software (AB SCIEX, version 1.6.2). […]
as §4

SLC47A1 = molecular target: T4, SLC47A1 (Homo sapiens, UniProt Q96FL8); assay: Uptake ratio screen, SLC47A1-overexpressing HEK293 over empty vector cells; format: cell-based; conditions: 2.5 μM, 2 min
T4 sequence (Q96FL8 1-570): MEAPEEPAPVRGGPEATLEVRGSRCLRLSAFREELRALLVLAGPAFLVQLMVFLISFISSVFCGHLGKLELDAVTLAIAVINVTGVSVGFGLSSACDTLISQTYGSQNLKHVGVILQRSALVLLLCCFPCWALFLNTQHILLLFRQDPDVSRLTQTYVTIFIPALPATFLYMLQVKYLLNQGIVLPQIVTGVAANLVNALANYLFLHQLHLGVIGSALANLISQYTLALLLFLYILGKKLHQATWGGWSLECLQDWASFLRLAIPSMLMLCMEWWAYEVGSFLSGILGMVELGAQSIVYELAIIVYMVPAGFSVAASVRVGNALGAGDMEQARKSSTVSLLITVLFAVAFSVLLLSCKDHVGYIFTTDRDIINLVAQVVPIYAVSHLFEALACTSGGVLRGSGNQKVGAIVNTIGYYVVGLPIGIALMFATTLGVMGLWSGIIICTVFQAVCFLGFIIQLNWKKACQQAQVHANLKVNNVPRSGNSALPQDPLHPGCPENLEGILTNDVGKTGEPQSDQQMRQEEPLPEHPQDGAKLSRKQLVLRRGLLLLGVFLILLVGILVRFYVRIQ
Description: as §1, §2, §5, §4

SLC38A10 = SLC38A10 (Homo sapiens, UniProt Q9HBR0); conditions: SLC38A10, HEK293, net uptake over empty vector cells
Sequence of SLC38A10 (Q9HBR0 whole entry): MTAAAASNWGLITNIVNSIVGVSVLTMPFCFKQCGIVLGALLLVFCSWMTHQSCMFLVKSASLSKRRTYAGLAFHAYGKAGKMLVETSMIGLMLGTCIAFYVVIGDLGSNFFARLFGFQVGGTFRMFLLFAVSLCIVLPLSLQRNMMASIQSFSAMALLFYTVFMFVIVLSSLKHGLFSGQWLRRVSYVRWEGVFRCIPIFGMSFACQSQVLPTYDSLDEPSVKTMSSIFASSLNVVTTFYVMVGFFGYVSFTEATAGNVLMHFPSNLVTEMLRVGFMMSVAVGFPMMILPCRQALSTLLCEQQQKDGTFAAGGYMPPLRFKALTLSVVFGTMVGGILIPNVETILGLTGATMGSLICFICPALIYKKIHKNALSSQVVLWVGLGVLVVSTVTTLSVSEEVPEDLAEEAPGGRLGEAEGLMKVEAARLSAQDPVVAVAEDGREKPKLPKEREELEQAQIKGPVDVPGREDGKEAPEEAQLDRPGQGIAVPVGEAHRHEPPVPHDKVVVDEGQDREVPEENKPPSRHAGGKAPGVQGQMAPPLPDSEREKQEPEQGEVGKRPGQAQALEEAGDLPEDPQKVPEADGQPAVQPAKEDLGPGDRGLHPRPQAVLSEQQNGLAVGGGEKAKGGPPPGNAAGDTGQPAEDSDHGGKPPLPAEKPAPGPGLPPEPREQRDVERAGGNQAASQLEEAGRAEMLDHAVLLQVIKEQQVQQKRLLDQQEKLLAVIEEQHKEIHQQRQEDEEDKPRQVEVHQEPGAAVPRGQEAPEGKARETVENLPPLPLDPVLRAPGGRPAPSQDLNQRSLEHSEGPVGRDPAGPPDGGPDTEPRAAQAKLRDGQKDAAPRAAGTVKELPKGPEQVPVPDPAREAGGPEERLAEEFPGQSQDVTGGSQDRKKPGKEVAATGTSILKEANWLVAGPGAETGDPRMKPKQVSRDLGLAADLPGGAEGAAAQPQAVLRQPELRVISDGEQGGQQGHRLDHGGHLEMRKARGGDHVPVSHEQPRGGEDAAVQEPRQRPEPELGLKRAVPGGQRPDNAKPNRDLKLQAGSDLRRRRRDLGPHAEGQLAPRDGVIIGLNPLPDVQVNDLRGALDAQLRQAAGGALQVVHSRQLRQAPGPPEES

SLC19A3 = molecular target: T5, SLC19A3 (Homo sapiens, UniProt Q9BZV2); assay: Uptake ratio screen, SLC19A3-overexpressing HEK293 over empty vector cells; format: cell-based; conditions: 2.5 μM, 2 min
T5 construct: expressed in transfected cells
T5 sequence (Q9BZV2 whole entry): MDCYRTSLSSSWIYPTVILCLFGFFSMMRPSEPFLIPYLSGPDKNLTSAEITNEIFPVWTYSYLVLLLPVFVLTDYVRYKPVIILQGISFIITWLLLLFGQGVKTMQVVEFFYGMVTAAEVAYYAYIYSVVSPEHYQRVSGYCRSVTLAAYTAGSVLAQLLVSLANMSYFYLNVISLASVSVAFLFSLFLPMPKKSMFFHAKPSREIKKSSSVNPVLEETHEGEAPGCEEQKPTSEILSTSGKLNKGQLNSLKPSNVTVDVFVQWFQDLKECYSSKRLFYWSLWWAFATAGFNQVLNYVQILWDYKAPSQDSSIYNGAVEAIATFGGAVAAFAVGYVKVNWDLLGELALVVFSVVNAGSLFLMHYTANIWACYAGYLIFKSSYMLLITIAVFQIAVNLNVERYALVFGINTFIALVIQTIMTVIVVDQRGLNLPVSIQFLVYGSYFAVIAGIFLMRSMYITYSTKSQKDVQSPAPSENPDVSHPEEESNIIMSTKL
Description: as §1
In preparation for transport experiments, 24-well plates were pre-coated with poly-D-lysine (Sigma-Aldrich) and 300,000 cells were plated per well and incubated for 48 h. Firstly, the 24-well plate was placed on a heating plate at 37 °C, and the cells were washed with 37 °C HBSS^+ buffer (Hank’s balanced salt solution supplemented with 10 mM Hepes and adjusted to pH 7.4; Thermo Fisher Scientific). The substance-of-interest, which was diluted in 37 °C HBSS^+ to a desired concentration, was added to the cells for exactly 2 min. […] For variations in seeded cell numbers between the cell lines, several wells were lysed in RIPA buffer and used for total protein quantification using a bicinchoninic assay ([74]) and bovine serum albumin as calibration.
The intracellular drug concentrations after transport experiments were analyzed by high-performance liquid chromatography coupled to tandem mass spectrometry analysis. […] After separation, the detection of substances was performed with an API 4000 tandem mass spectrometer (AB SCIEX, https://sciex.com/support/software-support/software-downloads), followed by quantification of results with the Analyst software (AB SCIEX, version 1.6.2). […]

[3] = 2.5 μM substrate, 2 min, HEK293

T1 sequence (Q8N808 whole entry): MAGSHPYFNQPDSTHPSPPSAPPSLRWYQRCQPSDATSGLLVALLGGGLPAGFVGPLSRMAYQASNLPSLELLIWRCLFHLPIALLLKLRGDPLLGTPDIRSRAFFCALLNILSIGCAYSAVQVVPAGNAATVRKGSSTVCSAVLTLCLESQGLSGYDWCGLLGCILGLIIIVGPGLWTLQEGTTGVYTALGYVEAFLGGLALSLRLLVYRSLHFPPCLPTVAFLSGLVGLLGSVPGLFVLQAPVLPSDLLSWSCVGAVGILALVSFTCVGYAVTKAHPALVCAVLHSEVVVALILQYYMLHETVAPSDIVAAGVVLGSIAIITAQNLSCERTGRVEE

For `CCOC(=O)C1(c2ccccc2)CCN(C)CC1` [Meperidine], the “Clint (±SEM)” value (SLC35G3 [1]) was 4.60 (±4.78) μl × mg protein^-1 × min^-1 and the “Uptake by SLC22A15 (in words)” value (SLC22A15) was “significantly increased the uptake”.

For `CNC(C)Cc1ccc2c(c1)OCO2` (stereo not drawn) [MDMA, 3,4-methylenedioxymethamphetamine], the “Uptake by SLC35F5 (in words)” value (SLC35F5) was “highest uptake rates”, the “Clint (±SEM)” value (SLC35G3 [1]) was 4.31 (±2.26) μl × mg protein^-1 × min^-1 and the “Uptake by SLC22A15 (in words)” value (SLC22A15) was “significantly increased the uptake”. The “Uptake data for SLC35G3, mean value (fold-increase over empty vector control)” value (SLC35G3 [2]) was 1.58.

In the case of `C[N+](C)(C)[C@@H](Cc1c[nH]c(=S)[nH]1)C(=O)[O-]` [Ergothionine], the “Uptake by SLC22A15 (in words)” value (SLC22A15) is reported as “did not measure significant uptake” and the “Uptake data for SLC35G3, mean value (fold-increase over empty vector control)” value (SLC35G3 [2]; [3]) is reported as 1.67.

`Nc1nc2c(ncn2COCCO)c(=O)[nH]1` [Acyclovir] was tested, and the “Uptake by SLC47A2 (MATE2K) (in words)” value (SLC47A2) was “only transported by the MATEs”, the “Uptake by SLC47A1 (MATE1) (in words)” value (SLC47A1) was “only transported by the MATEs” and the “Uptake data for SLC35G3, mean value (fold-increase over empty vector control)” value (SLC35G3 [2]; [3]) was 1.21.

With `CC(N)Cc1ccccc1` (stereo not drawn) [Amphetamine] the “Vmax (±SEM)” value (SLC38A10) was 97.4 (±11.1) pmol × mg protein^-1 × min^-1 and the “Uptake data for SLC35G3, mean value (fold-increase over empty vector control)” value (SLC35G3 [2]; [3]) was 1.28.

`C[n+]1ccc(-c2ccccc2)cc1` [MPP^+, 1-methyl-4-phenylpyridinium] was tested, and the “Uptake by SLC19A3 (in words)” value (SLC19A3) was “moderate”.

For `CC(CN(C)C)CN1c2ccccc2CCc2ccccc21` (stereo not drawn) [Trimipramine], the “Uptake data for SLC35G3, mean value (fold-increase over empty vector control)” value (SLC35G3 [2]; [3]) was 1.47.
